{"source": "paper PMC11862990", "about": "“Utility of 6-aza-2-thiothymine in the synthesis of novel [1,2,4]triazolo[4,3-b][1,2,4]triazin-7-one derivatives: synthesis, structure elucidation, molecular docking and in vitro anti-lung cancer activity” (RSC Advances, 2025)", "key": {"PC3 (prostate cell line)": {"test_system": "PC3 (prostate cell line)", "assay": "MTT cytotoxicity assay, PC3", "assay_type": "cell-based", "details": "Homo sapiens, 100 μg ml^−1, 48 hours, MTT, read-out: (%) Mortality PC3", "experimental": "(§1) Using specific human cancer cell lines, the anti-proliferative effectiveness of compounds 7a–j was evaluated in an in vitro assay. The anti-cancer activity of these compounds (7a–j) on various cancer cell lines, including PC3 (Prostate cell line), A549 (Lung carcinoma), PACA2 (Pancreatic cancer cell line) and BJ1 (normal skin fibroblast), was investigated in this study using the 3-(4,5-dimethylthiazol-2-yl)-2,5-diphenyltetrazolium bromide (MTT) test. Doxorubicin (Dox) was the standard medication used as a positive control.\n(§2) All incubations were performed at 37 °C in a 5% CO2 incubator with a 95% humidified environment (Sheldon, TC2323; Cornelius, OR, USA). 96-well micro titer polypropylene plates were seeded with cells at a density of 10^4 cells per well in complete DMEM media, and the cells were allowed to adhere for 24 hours. After the media was aspirated, the tested compounds were added to the cells in a single dose of 100 μg ml^−1 in DMSO. Each well received 40 μl of MTT salt (2.5 g ml^−1) following a 48 hour incubation period. 200 μl of 10% sodium dodecyl sulfate (SDS) was added to each well after the reaction ended, and any formazan crystals that could have been produced were dissolved by two hours of incubator heating to 37 °C. The amount of formazan product was measured at 595 nm using a microplate reader (Bio-Rad Laboratories, model 3350, California, USA) with a reference wavelength of 690 nm, serving as a backdrop. Rather than the drugs under investigation, the medium was applied to the untreated cells (negative control). The examined compounds were dissolved in dimethylsulfoxide (DMSO), and the final concentration in the cells was less than 0.2%. For each compound and the control, the solvent concentration was the same."}, "A549 (lung carcinoma)": {"test_system": "A549 (lung carcinoma)", "assay": "MTT cytotoxicity assay, A549", "assay_type": "cell-based", "details": "Homo sapiens, A549, MTT; for cytotoxicity at 100 µg/mL: 100 μg ml^−1, 48 hours, read-out: (%) Mortality A549", "experimental": "as §1, §2"}, "[1]": {"test_system": "PACA2 (pancreatic cancer cell line)", "assay": "MTT cytotoxicity assay, PACA2", "assay_type": "cell-based", "details": "Homo sapiens, PaCa-2; 100 μg ml^−1, 48 hours, MTT; read-out: (%) Mortality PACA2", "experimental": "as §1, §2"}, "[2]": {"test_system": "BJ1 (normal skin fibroblast)", "details": "100 μg ml^−1, 48 hours, MTT", "method": "Using specific human cancer cell lines, the anti-proliferative effectiveness of compounds 7a–j was evaluated in an in vitro assay. The anti-cancer activity of these compounds (7a–j) on various cancer cell lines, including PC3 (Prostate cell line), A549 (Lung carcinoma), PACA2 (Pancreatic cancer cell line) and BJ1 (normal skin fibroblast), was investigated in this study using the 3-(4,5-dimethylthiazol-2-yl)-2,5-diphenyltetrazolium bromide (MTT) test.\nIn the initial screening trial, a single dosage concentration of 100 μg ml^−1 was applied for 48 hours. The cytotoxicity of the treated cells was determined by calculating the cell death percentage (% mortality) as a percentage of untreated cells (Table 2).\nCell viability was tested using the MTT assay, 3-(4,5-dimethylthiazol-2-yl)-2,5-diphenyl-tetrazolium bromide (Bio Basic Canada Inc. Toronto, Canada).[26] Under class II biosafety regulations, the procedures were carried out in a sterile laminar air flow cabinet (Baker, SG403INT; Sanford, ME, USA). Cell lines were obtained from the American type culture collection (ATCC) as a gift from Dr Stig Linder, Karonisca Institute, Sweden. All incubations were performed at 37 °C in a 5% CO2 incubator with a 95% humidified environment (Sheldon, TC2323; Cornelius, OR, USA). 96-well micro titer polypropylene plates were seeded with cells at a density of 10^4 cells per well in complete DMEM media, and the cells were allowed to adhere for 24 hours. After the media was aspirated, the tested compounds were added to the cells in a single dose of 100 μg ml^−1 in DMSO. Each well received 40 μl of MTT salt ([…]) following a 48 hour incubation period. 200 μl of 10% sodium dodecyl sulfate (SDS) was added to each well after the reaction ended, and any formazan crystals that could have been produced were dissolved by two hours of incubator heating to 37 °C. The amount of formazan product was measured at 595 nm using a microplate reader (Bio-Rad Laboratories, model 3350, California, USA) with a reference wavelength of 690 nm, serving as a backdrop. Rather than the drugs under investigation, the medium was applied to the untreated cells (negative control). The examined compounds were dissolved in dimethylsulfoxide (DMSO), and the final concentration in the cells was less than 0.2%. For each compound and the control, the solvent concentration was the same."}}, "note": "“And” between values parts separate entries of the source, which are not always exact repeats. Equal values may be shown once."}
{"smiles": "Cc1nn2c(-c3ccc(Cl)cc3)nn(-c3ccccc3)c2nc1=O", "note": "[Compound 7h, 3-(4-Chlorophenyl)-6-methyl-1-phenyl-[1,2,4]triazolo[4,3-b][1,2,4]triazin-7(1H)-one]", "values": [{"measurement": "cytotoxicity at 100 µg/mL", "setting": "PC3 (prostate cell line)", "result": "24.2 ± 0.21", "unit": "%"}, {"measurement": "cytotoxicity at 100 µg/mL", "setting": "A549 (lung carcinoma)", "result": "13.5 ± 0.33", "unit": "%"}, {"measurement": "cytotoxicity at 100 µg/mL", "setting": "[1]", "result": "21.3 ± 0.98", "unit": "%"}, {"measurement": "(%) Mortality BJ1 (cytotoxicity percentage on normal cells)", "setting": "[2]", "result": "9.6 ± 0.93", "unit": "%"}]}
{"smiles": "Cc1ccc(-c2nn(-c3ccccc3)c3nc(=O)c(C)nn23)cc1", "note": "[Compound 7f, 6-Methyl-1-phenyl-3-(p-tolyl)-[1,2,4]triazolo[4,3-b][1,2,4]triazin-7(1H)-one]", "values": [{"measurement": "cytotoxicity at 100 µg/mL", "setting": "PC3 (prostate cell line)", "result": "33.4 ± 1.18", "unit": "%"}, {"measurement": "cytotoxicity at 100 µg/mL", "setting": "A549 (lung carcinoma)", "result": "69.1 ± 0.77", "unit": "%"}, {"measurement": "cytotoxicity at 100 µg/mL", "setting": "[1]", "result": "5.6 ± 0.11", "unit": "%"}, {"measurement": "(%) Mortality BJ1 (cytotoxicity percentage on normal cells)", "setting": "[2]", "result": "3.2% and 3.2 ± 0.63%"}]}
{"smiles": "Cc1nn2c(-c3cccs3)nn(-c3ccc([N+](=O)[O-])cc3)c2nc1=O", "note": "[Compound 7j, 6-Methyl-1-(4-nitrophenyl)-3-(thiophen-2-yl)-[1,2,4]triazolo[4,3-b][1,2,4]triazin-7(1H)-one]", "values": [{"measurement": "cytotoxicity at 100 µg/mL", "setting": "PC3 (prostate cell line)", "result": "15.9 ± 0.51", "unit": "%"}, {"measurement": "cytotoxicity at 100 µg/mL", "setting": "A549 (lung carcinoma)", "result": "32.8 ± 0.54", "unit": "%"}, {"measurement": "cytotoxicity at 100 µg/mL", "setting": "[1]", "result": "7.2 ± 0.88", "unit": "%"}, {"measurement": "(%) Mortality BJ1 (cytotoxicity percentage on normal cells)", "setting": "[2]", "result": "3.8 ± 0.77", "unit": "%"}]}
{"smiles": "Cc1nn2c(CC(C)C)nn(-c3ccc([N+](=O)[O-])cc3)c2nc1=O", "note": "[Compound 7e, 3-Isobutyl-6-methyl-1-(4-nitrophenyl)-[1,2,4]triazolo[4,3-b][1,2,4]triazin-7(1H)-one]", "values": [{"measurement": "cytotoxicity at 100 µg/mL", "setting": "PC3 (prostate cell line)", "result": "35.1 ± 1.11", "unit": "%"}, {"measurement": "cytotoxicity at 100 µg/mL", "setting": "A549 (lung carcinoma)", "result": "86.3 ± 0.74", "unit": "%"}, {"measurement": "IC50", "setting": "A549 (lung carcinoma); 48 hour incubation", "result": 42.5, "unit": "µM"}, {"measurement": "cytotoxicity at 100 µg/mL", "setting": "[1]", "result": "8.6 ± 0.33", "unit": "%"}, {"measurement": "(%) Mortality BJ1 (cytotoxicity percentage on normal cells)", "setting": "[2]", "result": "6.4% and 6.4 ± 0.85%"}]}
{"smiles": "Cc1nn2c(-c3ccco3)nn(-c3ccc([N+](=O)[O-])cc3)c2nc1=O", "note": "[Compound 7i, 3-(Furan-2-yl)-6-methyl-1-(4-nitrophenyl)-[1,2,4]triazolo[4,3-b][1,2,4]triazin-7(1H)-one]", "values": [{"measurement": "cytotoxicity at 100 µg/mL", "setting": "PC3 (prostate cell line)", "result": "18.4 ± 1.14", "unit": "%"}, {"measurement": "cytotoxicity at 100 µg/mL", "setting": "A549 (lung carcinoma)", "result": "14.2 ± 0.24", "unit": "%"}, {"measurement": "cytotoxicity at 100 µg/mL", "setting": "[1]", "result": "9.6 ± 1.33", "unit": "%"}, {"measurement": "(%) Mortality BJ1 (cytotoxicity percentage on normal cells)", "setting": "[2]", "result": "2.9 ± 1.22", "unit": "%"}]}
{"smiles": "CCc1nn(-c2ccc([N+](=O)[O-])cc2)c2nc(=O)c(C)nn12", "note": "[Compound 7b, 3-Ethyl-6-methyl-1-(4-nitrophenyl)-[1,2,4]triazolo[4,3-b][1,2,4]triazin-7(1H)-one]", "values": [{"measurement": "cytotoxicity at 100 µg/mL", "setting": "PC3 (prostate cell line)", "result": "24.5 ± 0.57", "unit": "%"}, {"measurement": "cytotoxicity at 100 µg/mL", "setting": "A549 (lung carcinoma)", "result": "35.2 ± 1.22", "unit": "%"}, {"measurement": "cytotoxicity at 100 µg/mL", "setting": "[1]", "result": "3.6 ± 0.21", "unit": "%"}, {"measurement": "(%) Mortality BJ1 (cytotoxicity percentage on normal cells)", "setting": "[2]", "result": "4.2 ± 0.98", "unit": "%"}]}
{"smiles": "Cc1nn2c(C(C)C)nn(-c3ccc([N+](=O)[O-])cc3)c2nc1=O", "note": "[Compound 7d, 3-Isopropyl-6-methyl-1-(4-nitrophenyl)-[1,2,4]triazolo[4,3-b][1,2,4]triazin-7(1H)-one]", "values": [{"measurement": "cytotoxicity at 100 µg/mL", "setting": "PC3 (prostate cell line)", "result": "17.9 ± 0.38", "unit": "%"}, {"measurement": "cytotoxicity at 100 µg/mL", "setting": "A549 (lung carcinoma)", "result": "33.3 ± 0.22", "unit": "%"}, {"measurement": "cytotoxicity at 100 µg/mL", "setting": "[1]", "result": "11.5 ± 0.25", "unit": "%"}, {"measurement": "(%) Mortality BJ1 (cytotoxicity percentage on normal cells)", "setting": "[2]", "result": "36.2 ± 1.11", "unit": "%"}]}
{"smiles": "CCCc1nn(-c2ccc([N+](=O)[O-])cc2)c2nc(=O)c(C)nn12", "note": "[Compound 7c, 6-Methyl-1-(4-nitrophenyl)-3-propyl-[1,2,4]triazolo[4,3-b][1,2,4]triazin-7(1H)-one]", "values": [{"measurement": "cytotoxicity at 100 µg/mL", "setting": "PC3 (prostate cell line)", "result": "27.3 ± 1.2", "unit": "%"}, {"measurement": "cytotoxicity at 100 µg/mL", "setting": "A549 (lung carcinoma)", "result": "22.9 ± 0.81", "unit": "%"}, {"measurement": "cytotoxicity at 100 µg/mL", "setting": "[1]", "result": "10.5 ± 0.61", "unit": "%"}, {"measurement": "(%) Mortality BJ1 (cytotoxicity percentage on normal cells)", "setting": "[2]", "result": "1.6 ± 0.38", "unit": "%"}]}
